Assay results reported in patent publication US20070122377A1, “Compositions and methods of treatment” (priority 2003, published 2007).

Legend:
[1] = system: U937 cells; assay: Release of IL-10 protein from U937 monocytes in response to PGE and GMCSF (Example 3, FIG. 4); assay type: cell-based, human
Experimental: Cells were treated for 4 hours with the agents indicated below the graph, washed to remove the treatment and incubated for a further 20 hours before the medium was assayed for IL-10. PGE refers to prostaglandin E2, and GM refers to GMCSF.
U937 cells were grown in RPMI (PAA Laboratories) medium with 10% foetal calf serum (PAA Laboratories) added.

[2] = system: U937 cells; assay: IL-10 ELISA in U937 cells, prostaglandins in presence and absence of rolipram (Examples 5 and 6, FIGS. 7 and 8); assay type: cell-based, human
Experimental: U 937 cells were grown in RPP (PAA Laboratories) medium with 10% fetal calf serum added (PAA Laboratories). 2×10^6 cells per flask were treated with prostaglandin E2 at 10^−6 Molar or with Rolipram (4×10^−6) for 24 hours. Medium was removed at 20 hours and analysed by ELISA. A capture antibody (Pharmingen) was coated onto 96 well plates and culture medium was added each well. A standard curve was created with recombinant IL-10 protein. After incubation and washing, a biotin labelled monoclonal antibody (Pharmingen) was added and following incubation and washing, peroxidase labelled streptavidin was added. After washing a tetramethyl benzidine substrate was added and colour developed in proportion to IL-10 in the original sample/standard. Colour was read using a plate photometer (Labsystems, Multiskan). Mean concentrations (N=3) in controls with no lipopolysaccharide (LPS) were 38.2 pg/ml and in the presence of LPS (100 nM) they were 43.9 […].
The effect of PGE1, PGE2, 19 hydroxy PGE1 and 19 hydroxy PGE2 on the stimulation of IL-10 in the presence and absence of rolipram was investigated as described above in Example 5. IL-10 levels were measured using an ELISA assay (R&D Ltd, Oxford). Measurement was performed according to the manufacturer's instructions.

[3] = system: U937 cells; assay: phosphodiesterase IV-b mRNA in U937 cells (Example 7, FIG. 9); assay type: cell-based, human; details: four hours of incubation; PGE 1×10^-6, 19-hydroxy PGE2 5×10^-6
Experimental: After the incubation (20 hours), cells were pelleted and the mRNA was extracted with Tri-reagent (Sigma, Poole, UK). Total RNA was obtained by addition of chloroform and subsequent isopropanol precipitation. RNA was reverse transcribed with reverse transcriptase (Applied Biosystems) and random hexamers (Applied Biosystems). Probes and primers for IL-10 and IL-12 (p35) were designed using Primer Express (Applied Biosystems) and were as follows:
Template was amplified in a Taqman 7700 machine for 40 cycles using FAM/TAMRA dyes on the probe. The Applied Biosystems kit was used to amplify and detect ribosomal (18S) RNA (using VIC/TAMRA dyes) as an internal control in the same reaction tube. After 40 cycles the Ct (related to cycle number at which signal appears) for the FAM and the 18S (VIC) were recorded and […] relative quantitation was achieved using the formula 2^−ΔΔCt where Δ refers to the difference between the FAM and VIC signal related to an standard comparator included in each run.
The mRNA for phosphodiesterase IV-b was measured as described in Example 5 above. mRNA was extracted after four hours of incubation. The concentration of the PGE was 1×10^−6 and that of the 19-hydroxy PGE2 was 5×10^−6. The following primers and Taqman probe were used for quantitation of PDE IV b mRNA.

[4] = system: PDE; details: non-specific PDE inhibitor; cited from earlier work
[5] = system: U937 cells; assay: IL-10 and TNFα mRNA in U937 cells after differentiating agents (Example 9, FIG. 13); assay type: cell-based, human
Experimental: U937 (human monocyte cell line) cells were grown in RPMI (PAA Laboratories) medium with 10% fetal calf serum added (PAA Laboratories). Cells were treated with prostaglandin E2 at 10^−6 Molar, Rolipram 10^−6 Molar, Forskolin 50×10^−6 Molar with or without GMCSF at 5 ng/ml for 48 hours. Cells were pelleted and the mRNA was extracted with Tri reagent (Sigma, Poole, UK). Total RNA was obtained by addition of chloroform and subsequent isopropanol precipitation. RNA was reverse transcribed with reverse transcriptase (Applied Biosystems) and random hexamers (Applied Biosystems). Probes and primers for amplification and detection of IL-10 were designed using Primer Express (Applied Biosystems) and are as follows:
As for Example 4 but MRNA for TNFα is also included.
Data is shown as the ratio of IL-10 mRNA/TNFα mRNA. P=PMA=Phorbol myristoyl acetate; F=Fsk=Forskolin g=GMCSF, C=vehicle control.

[6] = system: type IV PDE; details: cited from earlier work; for IC50: type IV PDE selective inhibitor
[7] = cited from earlier work

19-hydroxy PGE2
stimulation of IL-10 in the presence of GMCSF [1]: increased strikingly
stimulation of IL-10 in the presence of a PDE inhibitor [2]: increased strikingly
PDE activity / PDE message (phosphodiesterase IV-b mRNA) [3]: increase

CC(C)Cn1c(=O)n(C)c(=O)c2[nH]cnc21 [IBMX, 3-isobutyl-1-methylxanthine]
IC50 [4]: 2000 to 50000 nM

CCCCC[C@H](O)/C=C/[C@H]1[C@H](O)CC(=O)[C@@H]1C/C=C\CCCC(=O)O [PGE, prostaglandin E2]
stimulation of IL-10 in the presence of GMCSF [1]: increased strikingly
stimulation of IL-10 in the presence of a PDE inhibitor [2]: increased strikingly
PDE activity / PDE message (phosphodiesterase IV-b mRNA) [3]: increase

CCCCCCCCCCCCCC(=O)O[C@@H]1[C@@H](C)[C@@]2(O)[C@@H](C=C(CO)C[C@]3(O)C(=O)C(C)=C[C@@H]23)[C@@H]2C(C)(C)[C@]12OC(C)=O [PMA, Phorbol myristoyl acetate]
IL-10 mRNA ([5]; PMA 2×10^-7 M as differentiating agent): increased
TNFα mRNA ([5]; differentiation with the agent): increased

CCCCOc1cc(CC2CNC(=O)N2)ccc1OC (stereo not shown) [Ro-20-1724, 4-[3-butoxy-4-methoxybenzyl]-2-imidazolidinone]
IC50 [6]: 2000 nM

COc1ccc(C2CNC(=O)C2)cc1OC1CCCC1 (stereo not shown) [rolipram, 4-[3-cyclopentyloxy-4-methoxyphenyl]-2-pyrrolidinone]
IC50 [6]: 800 nM

Cn1c(=O)c2[nH]cnc2n(C)c1=O [theophylline]
times less effective than rolipram ([6]; non-selective inhibitor compared with type IV selective rolipram): 30 times

B1: GM-CSF: Murine Granulocyte macrophage colony stimulating factor from Peprotech, catalog number 315-03 (protein, UniProt P01587 18-141, looked up)
Granulocyte-macrophage …: APTRSPITVTRPWKHVEAIKEALNLLDDMPVTLNEEVEVVSNEFSFKKLTCVQTRLKIFEQGLRGNFTKLKGALNMTASYYQTYCPPTPETDCETQVTTYADFIDSLKTFLTDIPFECKKPGQK
solubility in aqueous solution [7]: Freely soluble
